Test [1] deals with T1, 4-HPA hydroxylase of K. pneumoniae (Klebsiella oxytoca, UniProt Q48440).
T1 construct: expressed in transfected cells; host or cells: E. coli CC118 (K-12) transformed with pG260 = E. coli P260 (CECT 4627)
The test is described as follows: Hidroxylase activity expressed by E. coli P260 on different aromatic compounds. The format is biochemical. The arrangement: concentration or dose not given beside the values. The following applies: compound as organic substrate of the enzyme expressed by E. coli P260. The source says:
(§1) By means of hydroxylation, this enzyme transforms 3-HPA and 4-HPA into 3,4-DHPA which, after the subdequent action of a dioxygenase, loses its aromaticity. For the isolation of these genes, the chromosomic DNA of K. pneumoniae was isolated and digested with the restriction enzyme Bam Hl. As a cloning vector the plasmid pUC18Not was chosen (Herrero et al., 1990; J. Bacteriol. 72:6557-67), digested with BamHl and dephosphorilated. Bonding mixtures were used in the transformation of the mutant strain W-21 of E. coli (Lacrec A), a mutant deficient in the 4-HPA hydroxylase enzyme. The transformants were select on plates that contained ampicillin (100 µg/ml), IPTG and X-Gal and subsequently on selected media with Ampicillin and 4-HPA as the sole source of carbon and energy. A recombinant plasmid complemented the 4-HPA mutation of E. coli W-21 and treating this transformant with acridin orange caused reversion to the mutant phenotype (due to loss of plasmids). […] Synthesis of the enzyme was checked by determining enzymatic activity in "standard" conditions, by means of a spectrophotometric test (Martin et al., 1991; J. Gen. Microbiol. 132: 621-628). In this way it was established that the enzyme synthesized constitutively in the strains of E. coli derived from K-12 (strains incapable of metabolizing 4-HPA because they lack all the genes of the degradative route), unlike what occurs in K. pneumoniae M5a1 or E. coli W, where synthesis of the enzyme is inducible by 3-HPA and/or 4-HPA. The E. coli K-12 (E. coli CC118) strains, transformed by the recombinant plasmid, were called E. coli P260. […]
The E. coli P260 cultures produced a blackish brown pigmentation in LB or BHI as a consequence of the expression of the cloned genes. […] To investigate this hypothesis, several aromatic compounds were analyzed, different from 3-HPA and 4-HPA, as possible substrates of the enzyme (Table 2).

Another test relates to 4-HPA hidroxylase. The test is described as follows: 4-HPA hydroxylase activity of strains, spectrophotometric test in standard conditions. The format is biochemical, K. pneumoniae.
Excerpt: as §1

Another test relates to E. coli W-P260 strain. The test is described as follows: Biodegradation (mineralization) of the aromatic compound by a growing culture, 14C-CO2 trapping and HPLC. In kind it is cell-based. The following applies: minimum PJC medium with glycerol and 4-HPA 2.5 mM, 30°C, 200 rpm. How it is done: In a test experiment, the following procedure was carried out: the E. coli W-P260 strain (obtained by transformation of the E. coli W-21 strain, mutant in hpa genes) was grown in a minimum PJC medium supplemented with glycerol and 4-HPA 2.5 mM (10% of which was marked with ^14C in the aromatic ring). Incubation was carried out at 30°C and with stirring (200 rpm). In order to quantify the biotransformation of the aromatic ring, the CO2 formed during the process was collected on NaOH 1N located in the lid of the matrass so that it would act as a trapping agent. Samples were taken at different times (Figure 3) so as to evaluate the formation of biomass (DO 680), release of CO2 (cpm) and the disappearance of 4 HPA (measurement of concentration by HPLC). In Figure 3 it may be observed how the mineralization capacity of the E. coli W-P260 strain achieves mineralization of the aromatic compound in 12 hours.

SMILES strings stand for the structures.

T1 sequence (Q48440 whole entry): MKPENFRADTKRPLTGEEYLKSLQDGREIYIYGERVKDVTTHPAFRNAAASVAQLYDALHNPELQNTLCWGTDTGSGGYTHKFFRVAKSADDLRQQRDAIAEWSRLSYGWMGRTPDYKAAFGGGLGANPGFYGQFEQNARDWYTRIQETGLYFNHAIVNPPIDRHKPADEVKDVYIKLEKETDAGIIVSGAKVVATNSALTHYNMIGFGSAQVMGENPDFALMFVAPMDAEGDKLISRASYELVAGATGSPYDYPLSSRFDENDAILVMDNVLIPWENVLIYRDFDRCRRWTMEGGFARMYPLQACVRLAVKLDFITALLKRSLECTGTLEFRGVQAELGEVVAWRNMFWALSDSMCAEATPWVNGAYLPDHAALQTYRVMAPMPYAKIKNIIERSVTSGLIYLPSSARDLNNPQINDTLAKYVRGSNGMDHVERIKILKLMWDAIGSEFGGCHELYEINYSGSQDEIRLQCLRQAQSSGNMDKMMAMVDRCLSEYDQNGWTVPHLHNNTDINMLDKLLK

With `N[C@@H](Cc1ccc(O)c(O)c1)C(=O)O` (racemic) [L-Dopa, DL-Dihydroxyphenylalanin], the “% ACTIVITY” value in test [1] was determined as 10%. The same measure, in the same setting: the figure for `O=C(O)Cc1ccccc1O` [2-HPA, 2-Hydroxyphenylacetate] is < 5%; for `O=C(O)c1ccc(O)c(O)c1` [3,4-DHBA, 3,4-Dihydroxybenzoate] it is 30%. Consider `O=C(O)Cc1ccc(O)c(O)c1` [3,4-DHPA, 3,4-dihydroxyphenylacetate], for which the “% ACTIVITY” value in test [1] is listed as 50%. For `O=C(O)Cc1cccc(O)c1` [3-HPA], the “% ACTIVITY” value in test [1] is recorded as 100%. In addition, the 4-HPA hidroxylase is recorded as <1 in the test with 4-HPA hidroxylase (strain E. coli CC118, substrate growth Gly/4-HPA); 50±6 in the test on 4-HPA hidroxylase (strain E. coli P260, substrate growth Gly/4-HPA/Ap); 57±9 with 4-HPA hidroxylase (strain E. coli P260, substrate growth LB/Ap); 28±5 in the test with 4-HPA hidroxylase (strain E. coli W-21 (plasmid), substrate growth Gly/4-HPA/Ap); <5 in the test on 4-HPA hidroxylase (strain E. coli W-21 (plasmid), substrate growth LB/Ap); <1 in the test on 4-HPA hidroxylase (strain E. coli W-21, substrate growth Gly/4-HPA). For the same molecule, the 4-HPA hidroxylase is 26±9 in the test on 4-HPA hidroxylase (strain K. pneumoniae M5a1, substrate growth 4-HPA) and <1 with 4-HPA hidroxylase (strain K. pneumoniae M5a1, substrate growth LB). Regarding `O=C(O)c1ccc(O)cc1` [4-HBA, 4-Hydroxybenzoate], the “% ACTIVITY” value in test [1] amounted to 15%.

For `O=C(O)Cc1ccc(O)cc1` [4-HPA, 4-hydroxyphenylacetate], in test [1], the “% ACTIVITY” value amounted to 100%. Besides, the “mineralization of the aromatic compound” value with E. coli W-P260 strain was found to be 12 h.

For `Oc1ccccc1O` [Catecol], the “% ACTIVITY” value in test [1] is 30%. The same measure, in the same setting: the figure for `N[C@@H](Cc1ccc(O)cc1)C(=O)O` [L-Tyr, L-Tyrosine] is 8%. As to `O=C(O)Cc1ccccc1` [PA, Phenylacetic acid], the “% ACTIVITY” value in test [1] is < 5%.
